Measurements reported in US10258602B2 (Ocera Therapeutics, Inc., priority 2007, dated 2019).

target: human growth hormone secretagogue receptor (hGHS-R1a) (Homo sapiens, UniProt Q92847); assay: Competitive radioligand binding assay (ghrelin receptor), standard method A; conditions: binding activity at the human ghrelin receptor, standard method A
Excerpt: A competitive binding assay at the human growth hormone secretagogue receptor (hGHS-R1a) can be carried out analogously to assays described in the literature. (Bednarek, M. A.; et al. J. Med. Chem. 2000, 43, 4370-4376; Palucki, B. L.; et al. Bioorg. Med. Chem. Lett. […], 11, 1955-1957.) See also U.S. patent application Ser. Nos. 11/149,512 and 11/149,731. Binding activity at the gherlin receptor for representative compounds of the present invention is shown in the Examples below.

Chain of human growth hormone secretagogue receptor (hGHS-R1a) (Q92847 whole entry): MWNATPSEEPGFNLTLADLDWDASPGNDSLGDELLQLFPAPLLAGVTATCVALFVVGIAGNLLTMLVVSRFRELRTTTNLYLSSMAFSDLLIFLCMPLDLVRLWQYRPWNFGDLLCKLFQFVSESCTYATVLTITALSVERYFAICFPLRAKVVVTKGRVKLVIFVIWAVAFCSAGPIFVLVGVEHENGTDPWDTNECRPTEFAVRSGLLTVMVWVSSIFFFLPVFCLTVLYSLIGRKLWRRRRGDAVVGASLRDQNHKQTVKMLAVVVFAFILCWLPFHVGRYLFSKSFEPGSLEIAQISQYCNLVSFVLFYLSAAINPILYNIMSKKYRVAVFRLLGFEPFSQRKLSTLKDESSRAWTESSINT

Structure (SMILES) | Ki
CC[C@H](C)[C@@H]1NC[C@@H](C)Oc2ccccc2CCCNC(=O)[C@@H](Cc2ccc(O)cc2)NC(=O)[C@@H](C)N(C)C1=O [Compound 993] | ≤ 0.1 µM
C[C@@H]1C(=O)N[C@H](Cc2ccc(O)cc2)C(=O)NCCCc2nccc3c2O[C@H](CC3)CN[C@@H](C2CC2)C(=O)N1C [Compound 1074] | ≤ 0.1 µM
CC(C)CC1NC(=O)C(C)N(C)C(=O)C(C2CC2)NCC(C)OC2CCCCC2CCC(C)NC1=O (stereo not drawn) [Compound 1107] | ≤ 0.1 µM
CC1C(=O)NC(Cc2ccc(O)cc2)C(=O)NCCCc2ccc(F)cc2OCCNC(C2CCCCC2)C(=O)N1C (stereo not drawn) [Compound 1113] | ≤ 0.001 µM
C[C@@H]1CN[C@@H](C2CC2)C(=O)N(C)[C@H](C)C(=O)N[C@H](Cc2cc(Br)c(O)c(Br)c2)C(=O)NCCCc2ccccc2O1 [Compound 1053] | ≤ 0.1 µM
CC1CNC(C2CC2)C(=O)N(C)C(C)C(=O)NC(Cc2ccccc2O)C(=O)NCCCc2ccccc2O1 (mixture of isomers) [Compound 1101] | ≤ 0.5 µM
CC1C(=O)NC(Cc2ccc(O)cc2)C(=O)NCCCc2c(F)cccc2OCCNC(C2CC2)C(=O)N1C (stereo not drawn) [Compound 1110] | ≤ 0.1 µM
C[C@@H]1CN[C@@H](C2CC2)C(=O)N(C)[C@H](C)C(=O)N[C@H](C2CC2)C(=O)NCCCc2ccccc2O1 [Compound 1048] | > 0.5 µM
C[C@@H]1CN[C@@H](C2CC2)C(=O)N(C)[C@H](C)C(=O)N[C@H](Cc2ccccn2)C(=O)NCCCc2ccccc2O1 [Compound 972] | ≤ 0.1 µM
CC1CNC(C2CC2)C(=O)N(C)C(C)C(=O)NC(CC2CCCC2)C(=O)NCCCC2CCCCC2O1 (mixture of isomers) [Compound 1114] | ≤ 0.001 µM
C[C@@H]1CN[C@@H](C2CC2)C(=O)N(C)[C@H](C)C(=O)N[C@H](Cc2ccc(Cl)cc2)C(=O)NCCCc2cccc(F)c2O1 [Compound 936] | ≤ 0.1 µM
C[C@@H]1C(=O)N[C@H](Cc2ccccc2)C(=O)NCCCc2ccncc2OCCN[C@@H](C2CC2)C(=O)N1C [Compound 1031] | ≤ 0.1 µM

Continued, values first:

Ki | Structure (SMILES)
≤ 0.001 µM | CC(C)CC1NC(=O)C(C)N(C)C(=O)C(C2CCCCC2)NCCOc2cc(F)ccc2CCCNC1=O (stereo not drawn) [Compound 1112]
≤ 0.01 µM | Cc1ccc(C[C@H]2NC(=O)[C@@H](C)N(C)C(=O)[C@H](C3CC3)NCCOc3ccccc3CCCNC2=O)cc1 [Compound 860]
≤ 0.1 µM | C[C@@H]1CN[C@@H](C2CC2)C(=O)N(C)[C@H](C)C(=O)N[C@H](C2CCCCC2)C(=O)NCCCc2ccccc2O1 [Compound 1046]
≤ 0.01 µM | C[C@@H]1C(=O)N[C@H](Cc2ccc(Cl)cc2)C(=O)NCCCc2ccc(F)cc2OCCN[C@@H](C2CC2)C(=O)N1C [Compound 864]
≤ 0.5 µM | CCC[C@@H]1NC[C@@H](C)Oc2ccccc2CCCNC(=O)[C@@H](Cc2ccccc2)NC(=O)[C@@H](C)N(C)C1=O [Compound 858]
> 0.5 µM | C[C@@H]1CN[C@@H](C2CC2)C(=O)N(C)[C@H](C)C(=O)N[C@H]([C@H](C)O)C(=O)NCCCc2ccccc2O1 [Compound 1050]
≤ 0.1 µM | CC(C)C[C@H]1NC(=O)[C@@H](C)N(C)C(=O)[C@H](C2CC2)NCCOc2ccccc2CC[C@H](C)NC1=O [Compound 1084]
≤ 0.5 µM | CC[C@H](C)[C@@H]1NCCOc2cccnc2CCCNC(=O)[C@@H](CC(C)C)NC(=O)[C@@H](C)N(C)C1=O [Compound 987]
≤ 0.1 µM | COc1ccc(C[C@H]2NC(=O)[C@@H](C)N(C)C(=O)[C@H](C3CC3)NC[C@@H](C)Oc3ccccc3CCCNC2=O)cc1 [Compound 867]
≤ 0.1 µM | C[C@@H]1CN[C@@H](C2CC2)C(=O)N(C)[C@H](C)C(=O)N[C@H]([C@@H](C)c2ccc(F)cc2)C(=O)NCCCc2ccccc2O1 [Compound 1034]
≤ 0.5 µM | C[C@@H]1CN[C@@H](C2CC2)C(=O)N(C)[C@H](C)C(=O)N[C@H](Cc2ccc(F)cc2)C(=O)NCCCc2c(F)cccc2O1 [Compound 937]
≤ 0.1 µM | CC[C@H](C)[C@@H]1NC[C@@H](C)Oc2ccccc2CCCNC(=O)[C@@H](Cc2ccc(F)cc2)NC(=O)[C@@H](C)N(C)C1=O [Compound 855]
